Assay: xn = mol fraction of the nth substance listed
Conditions: 298.15 K, 101 kPa

Row | Compound | viscosity (x2 = 0.0793) [mPa·s] | viscosity (x2 = 0.1393) [mPa·s] | viscosity (x2 = 0.2058) [mPa·s] | viscosity (x2 = 0.2578) [mPa·s] | viscosity (x2 = 0.345) [mPa·s] | viscosity (x2 = 0.384) [mPa·s] | viscosity (x2 = 0.4122) [mPa·s] | viscosity (x2 = 0.5622) [mPa·s] | viscosity (x2 = 0.688) [mPa·s] | viscosity (x2 = 0.7967) [mPa·s] | viscosity (x2 = 0.8984) [mPa·s] | viscosity (x1 = 0.0522) [mPa·s] | viscosity (x1 = 0.1818) [mPa·s] | viscosity (x1 = 0.2982) [mPa·s] | viscosity (x1 = 0.4204) [mPa·s] | viscosity (x1 = 0.4752) [mPa·s] | viscosity (x1 = 0.5937) [mPa·s] | viscosity (x1 = 0.6953) [mPa·s] | viscosity (x1 = 0.7954) [mPa·s] | viscosity (x1 = 0.8933) [mPa·s]
1 | CCCC[n+]1ccn(C)c1.O=S(=O)([N-]S(=O)(=O)C(F)(F)F)C(F)(F)F + CCO | 42.6 | 36.8 | 31.4 | 27.3 | 21.6 | 19.4 | 17.91 | 11.15 | 7.11 | 4.36 | 2.46 |  |  |  |  |  |  |  |  | 
2 | CCOC(C)=O + CCCC[n+]1ccn(C)c1.O=S(=O)([N-]S(=O)(=O)C(F)(F)F)C(F)(F)F |  |  |  |  |  |  |  |  |  |  |  | 44.4 | 30.6 | 21.1 | 13.67 | 10.91 | 6.54 | 3.93 | 2.21 | 1.105

— a compilation of properties of binary mixtures (doi:10.1007/s10953-010-9507-z)
